According to BindingDB's records for doi:10.7270/Q25Q4TJ1 (Burnham Center For Chemical Genomics, 2010):

molecular target: Intestinal-type alkaline phosphatase (Mus musculus, UniProt P24822); test: PubChem AID 488874
Sequence (P24822 whole entry, looked up): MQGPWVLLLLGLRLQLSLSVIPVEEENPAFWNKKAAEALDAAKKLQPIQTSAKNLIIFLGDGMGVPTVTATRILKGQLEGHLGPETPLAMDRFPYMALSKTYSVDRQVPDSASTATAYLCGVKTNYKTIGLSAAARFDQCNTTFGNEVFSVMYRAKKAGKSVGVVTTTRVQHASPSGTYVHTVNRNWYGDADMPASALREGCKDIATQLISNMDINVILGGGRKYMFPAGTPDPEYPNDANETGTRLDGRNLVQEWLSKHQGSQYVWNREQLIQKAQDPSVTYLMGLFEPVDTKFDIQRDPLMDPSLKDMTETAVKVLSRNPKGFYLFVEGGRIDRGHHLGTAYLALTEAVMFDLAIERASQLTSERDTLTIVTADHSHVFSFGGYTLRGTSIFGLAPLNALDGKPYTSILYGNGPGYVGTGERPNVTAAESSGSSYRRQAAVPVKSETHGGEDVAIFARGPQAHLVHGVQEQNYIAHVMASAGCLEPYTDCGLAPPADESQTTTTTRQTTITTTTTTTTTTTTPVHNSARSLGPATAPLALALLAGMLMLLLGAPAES

SMILES | IC50 [µM]
CC(N=Nc1ccccc1[N+](=O)[O-])c1ccc([N+](=O)[O-])cc1 (stereo not given) | > 100
CCOC1=CC(=Cc2c(C)[nH]oc2=O)C=C(Br)C1=O [4-[(Z)-(3-bromo-5-ethoxy-4-oxo-1-cyclohexa-2,5-dienylidene)methyl]-3-methyl-2H-isoxazol-5-one] | 33.1
O=C(Nn1c(O)csc1=S)C(=O)Nn1c(O)csc1=S [SMR000349781] | 3.84
O=Nc1[nH]c(=O)c(CC(=O)c2ccccc2)nc1NO [SMR000539633] | 35.5
O=C(O)[C@H]1O[C@@H](Oc2c(-c3ccc(O)c(O)c3)oc3cc(O)cc(=O)c-3c2O)[C@H](O)[C@@H](O)[C@@H]1O [quercetin glucuronide] | 3.29
Cc1c(C(=O)NN=Cc2ccc(O)cc2O)[nH][nH]c1=O | > 100
O=c1c2ccccc2nc(N=NCc2c(O)ccc3ccccc23)n1O [SMR000145705] | 75.3

More lines, now with the values ahead:

IC50 [µM] | SMILES
> 100 | Cc1cc(Br)ccc1SCC(=O)OCC(=O)C(C#N)c1nc2ccccc2[nH]1 (stereo not given) [2-[(4-bromo-2-methylphenyl)thio]acetic acid [3-cyano-3-(1,3-dihydrobenzimidazol-2-ylidene)-2-oxopropyl] ester]
35.1 | C=c1[nH]n(Cc2ccccc2)c(=O)c1=Cc1ccc(N(C)C)cc1 [(4Z)-4-[[4-(dimethylamino)phenyl]methylidene]-5-methyl-2-(phenylmethyl)-3-pyrazolone]
> 100 | CCOC(=O)c1c(C)[nH]c(C(=O)N/N=C/C2C=C([N+](=O)[O-])C=CC2=O)c1C (stereo not given) [ethyl 2,4-dimethyl-5-[[[(E)-(3-nitro-6-oxocyclohexa-2,4-dien-1-ylidene)methyl]amino]carbamoyl]-1H-pyrrole-3-carboxylate]
